For one experiment, the target named is T1, KIRK 2 channel (Homo sapiens, UniProt P78508).
T1 construct: primers that flank the open-reading frame of KIRK-2 were used to PCR amplify this region of the genomic clone; expressed in transfected cells; host or cells: Xenopus laevis oocytes injected with polyadenylated KIRK 2 cRNA (from pSPORT/KIRK-2)
T1 sequence (P78508 1-379): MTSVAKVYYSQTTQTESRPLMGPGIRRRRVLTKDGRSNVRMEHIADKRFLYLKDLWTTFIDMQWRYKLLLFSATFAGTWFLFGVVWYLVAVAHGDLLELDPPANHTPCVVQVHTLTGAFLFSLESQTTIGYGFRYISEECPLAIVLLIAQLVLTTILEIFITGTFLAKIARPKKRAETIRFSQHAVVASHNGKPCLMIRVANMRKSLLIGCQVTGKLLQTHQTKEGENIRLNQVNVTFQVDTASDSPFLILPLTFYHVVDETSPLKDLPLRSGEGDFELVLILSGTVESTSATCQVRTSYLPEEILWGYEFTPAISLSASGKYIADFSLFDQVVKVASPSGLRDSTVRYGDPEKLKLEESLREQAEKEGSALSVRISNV
The experiment is described as follows: Two-microelectrode voltage-clamp of Xenopus oocytes injected with KIRK 2 cRNA. Type of experiment: cell-based. Particulars: for inhibition of KIRK 2 current: Xenopus oocytes expressing KIRK 2, Ba^2+ applied at 0.03 μM to 10 mM (n=8), Cs^+ n=6, data not shown. As for the experimental part:
Oocytes were collected under tricaine (3-aminobenzoic acid ethyl ester, 0.17%; Sigma, St. Louis, Mo.) and cold-induced anesthesia from adult African clawed frogs, Xenopus laevis (Nasco, Ft. Atkinson, Wis.), and defolliculated by blunt dissection in Ca^2+ free ND-96 following 40 minutes incubation in 2 mg/ml collagenase (Type II; Sigma, St. Louis, Mo.). ND-96 consisted of 96 mM NaCl, 2 mM KCl, 1 mM MgCl2, 0.3 mM CaCl2, 5 mM HEPES, pH 7.6.The following day, a glass injection pipette manually broken to ~15 μm tip diameter was used to inject oocytes with […] of polyadenylated cRNA dissolved in water at 15, 30 or 100 ng/μl resulting in injection of 0.6, 1.2, or 4 ng of cRNA. Prior to recordings, oocytes were maintained 2-7 days at 20° C. in ND-96 supplemented with gentamycin ([…]; Bio-Whittaker, Walkersville, Md.) and sodium-pyruvate (2.5 mM; Sigma).
Electrophysiological recordings were conducted at room temperature. Oocyte resting membrane potential was measured in ND-96 using 30-80 M.OMEGA. glass microelectrodes filled with 3M KCl For two-microelectrode voltage-clamp recordings, the voltage-measuring pipette had resistances of 1.5 to 2.0 M.OMEGA., while the current-injection pipette had resistances of 0.7-0.9 M.OMEGA.; both pipettes were filled with 3M KCl. All voltage-clamp recordings were conducted in bath solutions containing 1 mM MgCl2, 0.3 mM CaCl2, and 5 mM HEPES. For experiments conducted in 50 mM K^+, the solution contained 50 mM KCl and 50 mM NaCl. For lower potassium concentrations, this solution was mixed with an identical solution in which choline was substituted for potassium. Pairs of solutions at pH 5.4 and 8.4, containing 50 mM KCl and either 50 mM potassium-acetate or 50 mM potassium-hydrogen phthalate (biphthalate; Sigma, St. Louis, Mo.) were mixed to vary pH.
Two-microelectrode, voltage-clamp recordings were conducted using the GeneClamp 500 (Axon Instruments, La Jolla, Calif.) interfaced with a 486 Computer running the PCLAMP 6.0 (Axon Instruments, La Jolla, Calif.) suite of programs. Currents were filtered at 2 kHz and sampled every 100 μs. Current amplitude was measured during the last 4 ms of a 400 ms test pulse. Data were analyzed and plotted using PCLAMP 6.0 and SIGMA PLOT 5.0 (Jandel Scientific, San Rafael, Calif.). Statistical significance was determined by the Student's T-test.

From patent US5831055A, “DNA encoding a novel kidney ATP-dependent potassium channels” (Pharmacia & Upjohn Company, priority 1996, dated 1998) come the findings set out here.

The molecule “KIRK-3 (human kidney inward rectifier K channel 3)” showed a whole-cell current at a holding potential of -160 mV in Xenopus oocytes, two-microelectrode voltage clamp with KIRK 1 (ROMK channel) of 54%.
Take `[Ba+2]` [Ba^2+]: at KIRK 2 channel (Ki values at holding potentials -120, -80 and -40 mV), the “fraction of the transmembrane electric field sensed by the binding site (Woodhull equation fit of Ki versus membrane potential)” value came to 46%. Further, the “inhibition of KIRK 2 current” value on KIRK 2 channel is “reversible, concentrationdependent inhibition”. Further, the “Hill coefficient of logistic fit of concentration-dependence of KIRK 2 inhibition” value on KIRK 2 channel (three holding potentials (-120, -80, -40 mV), n=8) amounted to 2.
On to `[Cs+]` [Cs^+], for which, at KIRK 2 channel, the “inhibition of KIRK 2 current” value was “reversible and voltage-dependent”. Further, the “effectiveness of block of KIRK 2 compared with Ba^2+” value on KIRK 2 channel (apparent only at the most negative potentials tested, n=6, data not shown) is reported as “far less effective than block by Ba^2+”.
